PMC12140300, “Development of Carbon‐11 Labeled Pyrimidine Derivatives as Novel Positron Emission Tomography (PET) Agents Enabling Brain Sigma‐1 Receptor Imaging” (Advanced Science, 2025)

Key:
Assay in all cases: PDSP radioligand assay
Format in all cases: binding
[1] = target: T1, 5-HT5A (Homo sapiens, UniProt P47898)
T1 construct: purchased NIMH Psychoactive Drug Screening Program (PDSP)
Protocol: (§1) The ex vivo binding affinities of σRs of CNY‐01 and CNY‐02 were measured using a competitive radioligand binding assay.^[ [35] ^]
(§2) Details of individual binding assay conditions and protocols are available at the NIMH PDSP website: https://pdsp.unc.edu/pdspweb/.

[2] = target: T2, 5-HT2C (Homo sapiens, UniProt P28335)
T2 sequence (P28335 33-458): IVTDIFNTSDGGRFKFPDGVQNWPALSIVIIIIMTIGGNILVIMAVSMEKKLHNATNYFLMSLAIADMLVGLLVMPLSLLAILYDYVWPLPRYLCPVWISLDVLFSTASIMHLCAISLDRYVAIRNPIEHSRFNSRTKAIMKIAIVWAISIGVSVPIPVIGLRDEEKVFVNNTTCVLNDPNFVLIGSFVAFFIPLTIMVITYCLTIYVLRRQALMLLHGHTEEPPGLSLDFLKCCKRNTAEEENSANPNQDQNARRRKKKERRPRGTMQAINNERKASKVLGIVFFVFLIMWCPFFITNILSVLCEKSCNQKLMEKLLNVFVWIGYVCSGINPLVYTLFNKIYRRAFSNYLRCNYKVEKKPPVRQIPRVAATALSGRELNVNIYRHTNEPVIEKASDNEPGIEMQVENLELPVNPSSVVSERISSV
Protocol: as §1, §2

[3] = target: T3, Beta3 (Homo sapiens, UniProt P13945)
T3 construct: purchased NIMH Psychoactive Drug Screening Program (PDSP)
Protocol: as §1, §2

[4] = target: H3 (Homo sapiens, UniProt Q9Y5N1)
Protocol: as §1, §2

[5] = target: D1 (Homo sapiens, UniProt P21728)
Protocol: as §1, §2

[6] = target: 5-HT7A (Homo sapiens, UniProt P34969)
Protocol: as §1, §2

[7] = target: 5-HT2A (Homo sapiens, UniProt P28223)
Protocol: as §1, §2

[8] = target: T4, D2 (Homo sapiens, UniProt P14416)
T4 construct: purchased NIMH Psychoactive Drug Screening Program (PDSP)
Protocol: as §1, §2

[9] = target: M3 (Homo sapiens, UniProt P20309)
Protocol: as §1, §2

[10] = target: T5, 5-HT1E (Homo sapiens, UniProt P28566)
T5 construct: purchased NIMH Psychoactive Drug Screening Program (PDSP)
Protocol: as §1, §2

[11] = target: T6, Alpha2A (Homo sapiens, UniProt P08913)
T6 sequence (P08913 1-465): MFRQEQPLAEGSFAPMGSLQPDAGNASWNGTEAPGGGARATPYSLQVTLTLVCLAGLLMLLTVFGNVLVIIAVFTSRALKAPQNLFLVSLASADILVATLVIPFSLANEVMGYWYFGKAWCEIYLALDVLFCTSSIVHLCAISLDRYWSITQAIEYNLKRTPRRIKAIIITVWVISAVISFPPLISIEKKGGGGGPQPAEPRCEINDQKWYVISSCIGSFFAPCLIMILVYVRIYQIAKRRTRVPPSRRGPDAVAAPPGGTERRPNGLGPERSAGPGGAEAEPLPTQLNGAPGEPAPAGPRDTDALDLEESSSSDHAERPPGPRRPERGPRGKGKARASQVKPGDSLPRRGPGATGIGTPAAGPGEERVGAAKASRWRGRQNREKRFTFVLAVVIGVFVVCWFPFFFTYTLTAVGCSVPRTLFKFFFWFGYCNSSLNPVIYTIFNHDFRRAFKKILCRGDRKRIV
Protocol: as §1, §2

[12] = target: H2 (Homo sapiens, UniProt P25021)
Protocol: as §1, §2

[13] = target: T7, DAT (Homo sapiens, UniProt Q01959)
T7 construct: purchased NIMH Psychoactive Drug Screening Program (PDSP)
Protocol: as §1, §2

[14] = target: T8, Beta1 (Homo sapiens, UniProt P08588)
T8 construct: purchased NIMH Psychoactive Drug Screening Program (PDSP)
Protocol: as §1, §2

[15] = target: T9, Beta2 (Homo sapiens, UniProt P07550)
T9 construct: purchased NIMH Psychoactive Drug Screening Program (PDSP)
Protocol: as §1, §2

[16] = target: KOR (Homo sapiens, UniProt P41145)
Protocol: as §1, §2

[17] = target: T10, Alpha1A (Homo sapiens, UniProt P35348)
T10 construct: purchased NIMH Psychoactive Drug Screening Program (PDSP)
Protocol: as §1, §2

[18] = target: T11, H4 (Homo sapiens, UniProt Q9H3N8)
T11 construct: purchased NIMH Psychoactive Drug Screening Program (PDSP)
Protocol: as §1, §2

[19] = target: T12, 5-HT1A (Homo sapiens, UniProt P08908)
T12 construct: purchased NIMH Psychoactive Drug Screening Program (PDSP)
Protocol: as §1, §2

[20] = target: T13, M2 (Homo sapiens, UniProt P08172)
T13 construct: purchased NIMH Psychoactive Drug Screening Program (PDSP)
Protocol: as §1, §2

[21] = target: T14, D4 (Homo sapiens, UniProt P21917)
T14 construct: purchased NIMH Psychoactive Drug Screening Program (PDSP)
Protocol: as §1, §2

[22] = target: D5 (Homo sapiens, UniProt P21918)
Protocol: as §1, §2

[23] = target: T15, 5-HT6 (Homo sapiens, UniProt P50406)
T15 construct: purchased NIMH Psychoactive Drug Screening Program (PDSP)
Protocol: as §1, §2

[24] = target: D3 (Homo sapiens, UniProt P35462)
Protocol: as §1, §2

[25] = target: T16, Alpha1D (Homo sapiens, UniProt P25100)
T16 construct: purchased NIMH Psychoactive Drug Screening Program (PDSP)
Protocol: as §1, §2

[26] = tested on: GABAA; conditions: 10 µM
Protocol: as §1, §2

Chain of D3 (P35462 whole entry): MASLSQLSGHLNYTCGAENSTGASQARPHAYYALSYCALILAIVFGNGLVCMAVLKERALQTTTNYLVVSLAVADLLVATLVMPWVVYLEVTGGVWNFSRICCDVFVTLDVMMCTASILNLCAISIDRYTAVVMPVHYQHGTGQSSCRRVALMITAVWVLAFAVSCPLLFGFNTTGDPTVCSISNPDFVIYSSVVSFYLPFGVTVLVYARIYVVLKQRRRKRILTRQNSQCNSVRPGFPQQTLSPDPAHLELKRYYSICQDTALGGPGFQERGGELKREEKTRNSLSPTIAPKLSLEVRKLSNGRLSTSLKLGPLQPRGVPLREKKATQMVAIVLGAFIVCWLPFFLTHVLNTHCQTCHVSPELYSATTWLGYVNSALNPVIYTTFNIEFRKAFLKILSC
Chain of H2 (P25021 whole entry): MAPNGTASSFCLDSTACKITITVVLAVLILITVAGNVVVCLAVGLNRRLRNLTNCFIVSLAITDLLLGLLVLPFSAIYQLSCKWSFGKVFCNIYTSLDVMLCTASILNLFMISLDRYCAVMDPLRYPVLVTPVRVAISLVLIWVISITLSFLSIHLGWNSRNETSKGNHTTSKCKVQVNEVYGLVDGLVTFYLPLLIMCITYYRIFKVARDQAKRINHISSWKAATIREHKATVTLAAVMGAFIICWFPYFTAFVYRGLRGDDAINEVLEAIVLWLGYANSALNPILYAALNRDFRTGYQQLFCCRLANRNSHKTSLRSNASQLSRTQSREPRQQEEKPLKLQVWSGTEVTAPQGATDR
Chain of 5-HT2A (P28223 whole entry, species assumed): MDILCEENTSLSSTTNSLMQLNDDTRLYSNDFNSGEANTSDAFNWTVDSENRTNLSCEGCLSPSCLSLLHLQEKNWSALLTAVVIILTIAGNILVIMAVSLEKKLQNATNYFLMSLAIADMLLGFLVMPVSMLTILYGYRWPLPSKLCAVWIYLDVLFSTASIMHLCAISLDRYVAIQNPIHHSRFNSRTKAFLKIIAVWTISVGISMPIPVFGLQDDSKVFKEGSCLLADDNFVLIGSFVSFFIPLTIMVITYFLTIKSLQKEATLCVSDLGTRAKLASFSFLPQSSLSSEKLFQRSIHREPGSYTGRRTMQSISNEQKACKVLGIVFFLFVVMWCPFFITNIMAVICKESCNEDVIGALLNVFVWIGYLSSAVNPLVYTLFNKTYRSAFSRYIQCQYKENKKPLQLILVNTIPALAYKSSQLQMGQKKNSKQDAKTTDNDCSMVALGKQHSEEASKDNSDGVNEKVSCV
Chain of H3 (Q9Y5N1 whole entry): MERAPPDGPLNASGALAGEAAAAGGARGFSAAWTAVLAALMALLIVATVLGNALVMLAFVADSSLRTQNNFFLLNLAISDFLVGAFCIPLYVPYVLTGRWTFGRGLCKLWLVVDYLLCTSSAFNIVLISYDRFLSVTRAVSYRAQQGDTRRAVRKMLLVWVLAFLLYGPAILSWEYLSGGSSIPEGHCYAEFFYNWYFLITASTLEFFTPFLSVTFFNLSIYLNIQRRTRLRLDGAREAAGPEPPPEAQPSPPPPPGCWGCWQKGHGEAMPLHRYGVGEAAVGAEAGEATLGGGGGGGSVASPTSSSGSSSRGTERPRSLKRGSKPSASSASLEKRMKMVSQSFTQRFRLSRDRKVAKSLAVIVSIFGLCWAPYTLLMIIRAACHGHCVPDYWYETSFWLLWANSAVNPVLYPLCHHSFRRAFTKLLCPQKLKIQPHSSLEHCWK
Chain of D1 (P21728 whole entry): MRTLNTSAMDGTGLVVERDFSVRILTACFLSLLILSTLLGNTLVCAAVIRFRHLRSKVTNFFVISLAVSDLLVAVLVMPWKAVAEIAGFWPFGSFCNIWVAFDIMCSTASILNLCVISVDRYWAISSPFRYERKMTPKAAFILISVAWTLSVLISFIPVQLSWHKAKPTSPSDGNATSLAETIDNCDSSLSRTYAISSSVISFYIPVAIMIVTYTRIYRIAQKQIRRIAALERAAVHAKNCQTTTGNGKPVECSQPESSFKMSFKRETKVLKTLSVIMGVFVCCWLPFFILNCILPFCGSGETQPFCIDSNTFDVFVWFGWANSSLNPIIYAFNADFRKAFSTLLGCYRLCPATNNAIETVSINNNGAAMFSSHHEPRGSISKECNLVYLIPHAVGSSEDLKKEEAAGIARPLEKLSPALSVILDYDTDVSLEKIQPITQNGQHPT
Chain of M3 (P20309 whole entry): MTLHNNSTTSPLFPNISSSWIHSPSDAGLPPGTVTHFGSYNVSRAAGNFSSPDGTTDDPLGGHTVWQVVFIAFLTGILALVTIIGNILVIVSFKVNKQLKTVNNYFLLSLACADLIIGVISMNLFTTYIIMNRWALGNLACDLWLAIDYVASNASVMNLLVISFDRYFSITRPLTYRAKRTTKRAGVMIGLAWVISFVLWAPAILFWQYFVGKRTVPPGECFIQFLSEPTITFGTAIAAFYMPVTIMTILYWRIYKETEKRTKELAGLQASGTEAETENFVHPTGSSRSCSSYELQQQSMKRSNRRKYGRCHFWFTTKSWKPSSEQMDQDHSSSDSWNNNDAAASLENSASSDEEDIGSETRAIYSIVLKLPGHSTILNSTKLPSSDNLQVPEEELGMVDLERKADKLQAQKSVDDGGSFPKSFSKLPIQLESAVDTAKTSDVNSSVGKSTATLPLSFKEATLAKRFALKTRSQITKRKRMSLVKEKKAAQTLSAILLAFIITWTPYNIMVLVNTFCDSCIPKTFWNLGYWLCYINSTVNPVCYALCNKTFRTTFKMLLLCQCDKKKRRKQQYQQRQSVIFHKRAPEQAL
Chain of KOR (P41145 whole entry): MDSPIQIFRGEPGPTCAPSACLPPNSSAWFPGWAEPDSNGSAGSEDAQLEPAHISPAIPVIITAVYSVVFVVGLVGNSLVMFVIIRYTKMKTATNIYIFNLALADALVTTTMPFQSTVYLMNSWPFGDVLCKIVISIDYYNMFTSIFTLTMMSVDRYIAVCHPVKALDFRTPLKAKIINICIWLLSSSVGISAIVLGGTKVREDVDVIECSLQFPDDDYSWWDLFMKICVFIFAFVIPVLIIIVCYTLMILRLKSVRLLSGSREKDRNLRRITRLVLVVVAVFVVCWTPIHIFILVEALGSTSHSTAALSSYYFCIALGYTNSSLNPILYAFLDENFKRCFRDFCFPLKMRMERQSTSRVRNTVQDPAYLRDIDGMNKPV
Chain of 5-HT7A (P34969 1-445 isoform P34969-2): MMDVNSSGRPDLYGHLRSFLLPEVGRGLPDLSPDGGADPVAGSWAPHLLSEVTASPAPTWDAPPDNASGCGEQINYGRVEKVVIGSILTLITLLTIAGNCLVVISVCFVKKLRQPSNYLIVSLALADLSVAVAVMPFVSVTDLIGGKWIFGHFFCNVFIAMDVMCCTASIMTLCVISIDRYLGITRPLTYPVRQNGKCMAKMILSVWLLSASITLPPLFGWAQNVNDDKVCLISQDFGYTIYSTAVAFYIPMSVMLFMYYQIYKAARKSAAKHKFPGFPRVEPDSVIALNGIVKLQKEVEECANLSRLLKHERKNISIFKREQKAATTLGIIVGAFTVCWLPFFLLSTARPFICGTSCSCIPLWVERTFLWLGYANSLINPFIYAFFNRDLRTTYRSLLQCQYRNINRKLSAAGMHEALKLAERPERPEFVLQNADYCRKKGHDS
Chain of D5 (P21918 whole entry): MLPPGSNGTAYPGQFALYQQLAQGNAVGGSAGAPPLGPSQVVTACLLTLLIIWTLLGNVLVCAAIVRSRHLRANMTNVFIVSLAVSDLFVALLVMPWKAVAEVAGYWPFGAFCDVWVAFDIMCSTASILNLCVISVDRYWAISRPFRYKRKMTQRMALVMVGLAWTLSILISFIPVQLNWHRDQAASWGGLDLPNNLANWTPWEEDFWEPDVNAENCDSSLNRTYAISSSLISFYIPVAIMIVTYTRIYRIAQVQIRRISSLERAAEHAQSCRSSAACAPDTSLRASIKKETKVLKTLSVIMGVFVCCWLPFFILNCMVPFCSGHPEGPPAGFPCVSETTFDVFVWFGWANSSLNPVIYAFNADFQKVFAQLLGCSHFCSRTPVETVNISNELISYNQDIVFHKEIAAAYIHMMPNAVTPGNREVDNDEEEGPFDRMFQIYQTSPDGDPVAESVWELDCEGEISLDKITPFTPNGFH
T14 sequence (P21917 whole entry): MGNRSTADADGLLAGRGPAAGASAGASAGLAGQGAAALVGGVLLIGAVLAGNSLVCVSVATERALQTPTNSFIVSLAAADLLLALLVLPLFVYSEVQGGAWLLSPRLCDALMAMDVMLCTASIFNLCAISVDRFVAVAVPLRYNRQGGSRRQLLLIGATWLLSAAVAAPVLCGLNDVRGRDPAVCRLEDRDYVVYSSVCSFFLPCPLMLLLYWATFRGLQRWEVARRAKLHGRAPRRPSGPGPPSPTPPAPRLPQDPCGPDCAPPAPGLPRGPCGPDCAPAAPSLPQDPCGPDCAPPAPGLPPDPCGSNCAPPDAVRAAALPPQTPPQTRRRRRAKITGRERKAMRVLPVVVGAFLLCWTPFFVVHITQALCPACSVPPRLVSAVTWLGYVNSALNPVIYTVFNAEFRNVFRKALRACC
T3 sequence (P13945 whole entry): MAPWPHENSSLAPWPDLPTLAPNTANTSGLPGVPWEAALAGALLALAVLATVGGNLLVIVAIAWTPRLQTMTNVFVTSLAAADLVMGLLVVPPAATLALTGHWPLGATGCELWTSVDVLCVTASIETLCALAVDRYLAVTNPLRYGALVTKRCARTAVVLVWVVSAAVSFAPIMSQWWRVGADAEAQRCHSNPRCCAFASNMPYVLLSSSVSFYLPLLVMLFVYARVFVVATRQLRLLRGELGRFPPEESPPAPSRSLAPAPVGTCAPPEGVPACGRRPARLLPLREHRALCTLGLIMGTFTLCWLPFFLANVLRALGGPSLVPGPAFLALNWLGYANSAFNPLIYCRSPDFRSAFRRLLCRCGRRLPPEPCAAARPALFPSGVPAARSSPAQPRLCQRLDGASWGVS

| SMILES | inhibition at 10 µM [1] | inhibition at 10 µM [2] | inhibition at 10 µM [3] | inhibition at 10 µM [4] | inhibition at 10 µM [5] | inhibition at 10 µM [6] | inhibition at 10 µM [7] | inhibition at 10 µM [8] | inhibition at 10 µM [9] | inhibition at 10 µM [10] | inhibition at 10 µM [11] | Ki [12] | inhibition at 10 µM [12] | inhibition at 10 µM [13] | inhibition at 10 µM [14] | inhibition at 10 µM [15] | inhibition at 10 µM [16] | inhibition at 10 µM [17] | inhibition at 10 µM [18] | inhibition at 10 µM [19] | further results |
| --- | --- | --- | --- | --- | --- | --- | --- | --- | --- | --- | --- | --- | --- | --- | --- | --- | --- | --- | --- | --- | --- |
| Cc1nc(-c2ccc(Cl)cc2)nc(OCCCN2CCN(C)CC2)c1Cl [CNY-02, 5‐chloro‐2‐(4‐chlorophenyl)‐4‐methyl‐6‐(3‐(4‐methylpiperazin‐1‐yl)propoxy)pyrimidine] | 29.4% | 89.4% | -3.01% | 42.9% | 52.1% | -4.02% | 85.5% | -0.57% | 54% | 27.8% | 47.6% | 1.24 µM | 84.9% | 33.8% | 3.55% | 11.7% | 20.4% | -1.08% | 23.3% | -2.49% | Ki [2]: 0.268 µM; Ki [5]: 2.34 µM; Ki [7]: 0.466 µM; Ki [9]: 0.727 µM; inhibition at 10 µM [20]: 29.1%; inhibition at 10 µM [21]: 17.8%; Ki [22]: > 10 µM; inhibition at 10 µM [22]: 58%; inhibition at 10 µM [23]: 28.1%; Ki [24]: 4.91 µM; inhibition at 10 µM [24]: 66.1%; inhibition at 10 µM [25]: -14.8%; Mean % (inhibition) [26]: 32.06% |
| COc1ccc(-c2nc(C)c(Cl)c(OCCCN3CCCCC3)n2)cc1 [CNY-01, 5‐chloro‐2‐(4‐methoxyphenyl)‐4‐methyl‐6‐(3‐(piperidin‐1‐yl)propoxy)pyrimidine] | 31.9% | -5.06% | 9.11% | 62.8% | 19% | 59.3% | 36.3% | 4.43% | 16.3% | 31.2% | 55.9% | 0.709 µM | 89.7% | 20.9% | 7.15% | 4.03% | 61.1% | 21.6% | 24% | 17.5% | Ki [4]: 1.06 µM; Ki [6]: 4.7 µM; Ki [11]: 2.37 µM; Ki [16]: 1.06 µM; inhibition at 10 µM [20]: 36.4%; inhibition at 10 µM [21]: 48%; inhibition at 10 µM [22]: 27.2%; inhibition at 10 µM [23]: 30.1%; Ki [24]: 0.521 µM; inhibition at 10 µM [24]: 65.8%; inhibition at 10 µM [25]: 23%; Mean % (inhibition) [26]: 25.49% |
